Three compounds from US5292521A, “Solid oral preparation containing a pyrrolidine derivative with a catechol group” (priority 1990, dated 1994) can be followed below.

Read-outs that look alike come from different tables or passages of the source.

Broadly, the AUC(0-t) is the area under the concentration-time curve up to a stated or last time point. The Cmax is the peak of the concentration-time curve. The term Tmax denotes the time at which the peak concentration occurs. For orientation: bioavailability means dose-corrected exposure relative to a reference, in per cent. A lower bioavailability goes with little systemic uptake. The MRT is the average time that molecules of a dose stay in the body.

A short description of series [1]: Oral administration to fasted beagles of compound (II) or (III) with ascorbic acid, plasma drug disposition parameters (Experimental Examples 5 and 6). The conditions noted are these: for AUC(0-t) at 8 h / Cmax / Tmax: po, 3 mg/kg, n=2; for AUC(0-t) at 8 h: AUC (0-8 hr) mean ± SE; for Cmax: Cmax mean ± SE; for Tmax: Tmax mean ± SE. The procedure: The term "bioavailability" herein is defined as follows: a plasma concentration-time curve of a drug after being administered once is prepared in each case of administration by intravenous injection and oral administration with the same amount of the drug, and the availability is represented by the ratio (F) of the area under the plasma concentration-time curve in the case of oral administration ([AUC]PO)to the area under the plasma concentration-time curve in the case of intravenous injection ([AUC]IV): [formula]
The ratio of an AUC value obtained when one or more compounds selected from the group consisting of organic acids and salts thereof are added to an AUC value obtained when no such compound(s) is (are) added will be referred to as "addition effect ratio".
350 mg of ascorbic acid and 70 mg of lactose were added to 70 mg of compound (II) and the mixture was thoroughly pulverized and mixed in a mortar. The mixture was filled in each of No. 2 gelatin capsules in such an amount that the dose of compound (II) would be 3 mg/kg to obtain a preparation.
A control sample free from ascorbic acid was prepared by preparing a powder of 7-fold dilution with lactose (70 mg of compound (II) plus 420 mg of lactose) and filled in No. 2 capsules in such an amount that the dose of compound (II) would be 3 mg/kg to obtain a preparation.
(a) Administration and collection of blood sample
(§1) Four beagles were divided into two groups (i.e. a group to which ascorbic acid was given and a control group) after fasting overnight (14 hours) and a preparation comprising 3 mg/kg of compound (II) and 15 mg/kg of ascorbic acid or a control preparation comprising no ascorbic acid was given together with 30 ml of water by oral administration. No food was given also in the course of collection of blood sample. 3 ml of the whole blood was sampled through a vein of a foreleg by means of a heparinized syringe, immediately cooled with ice/water and centrifuged (1200 rpm, 3 min, 4° C.). The blood plasma was separated and a citrate buffer solution (pH 3.5, 100 μl) was added thereto to adjust the pH to 5.0. The plasma thus treated was kept frozen at -20° C. The points of collection of blood samples were before the administration and 10, 20, 30 and 45 minutes and 1, 1.5, 2, 3, 4, 6 and 8 hours after the administration.
(b) Method of analysis of concentration of unchanged substance in blood plasma
(c) HPLC determination conditions
The drug disposition parameters of each sample were determined from the data obtained by the oral administration of the preparation comprising 3 mg/kg of compound (II) and 15 mg/kg of ascorbic acid or a control preparation comprising no ascorbic acid to beagles while they were kept fasting.
350 mg of ascorbic acid and 70 mg of lactose were added to 70 mg of compound (III) and the mixture was thoroughly pulverized and mixed in a mortar. The mixture was filled in each of No. 2 gelatin capsules in such an amount that the dose of compound (III) would be 3 mg/kg to obtain a preparation.
A control sample free from ascorbic acid was prepared by preparing a powder of 7-fold dilution with lactose (70 mg of compound (III) plus 420 mg of lactose) and filled in No. 2 capsules in such an amount that the dose of compound (III) would be 3 mg/kg to obtain a preparation.
as §1, with “(III)” for “(II)”, “syringe,” for “syringe, immediately”, “5.0.” for “5.0. The plasma thus treated was kept frozen at -20° C. The points of collection of blood samples were before the administration and 10, 20, 30 and 45 minutes and 1, 1.5, 2, 3, 4, 6 and 8 hours after the administration.”

Series [2] in a line: Correlation between AUC and oral dose in beagles, powder of ten-fold dilution with lactose in capsule; bioavailability from regression line (Experimental Example 2). It counts as in vivo. The conditions noted are these: oral. On the procedure:
Compound (VIII) or compound V was formulated into a powder of ten-fold dilution with lactose. It was given to beagles in an amount ranging from 0.3 to 30 mg/kg as a capsule by oral administration and the plasma concentration-time curve thereof was prepared. The regression line equation was as follows: […]

A short description of series [3]: Drug disposition after intravenous injection to beagles, plasma concentration-time curve (Experimental Example 1). It counts as in vivo. As to conditions: dog, 1 mg/kg iv; for half-life: iv, 1 mg/kg. On the procedure:
1 mg/kg of compound (VIII) was administered to beagles by intravenous injection and the plasma concentration-time curve thereof of prepared to find that the half-life composed of three phases (phases a, b and c).

The mark [4] stands for this setting: dog, plasma, 3 mg/kg oral + ascorbic acid 15 mg/kg.
[5] abbreviates: dog, plasma, 3 mg/kg oral, none (control).
The mark [6] stands for this setting: dog, in vivo, 3 mg/kg oral + ascorbic acid 15 mg/kg.
Where [7] appears, read: dog, in vivo, 3 mg/kg oral, none (control).

`CS(=O)(=O)O.Oc1ccc(C2CNCCc3c2cc(O)c(O)c3Cl)cc1` (stereo not drawn) [compound (III), 6-chloro-2,3,4,5-tetrahydro-1-(4-hydroxyphenyl)-1H-3-benzazepine-7,8-diol methanesulfonate, reference compound]: in series [1] (dog, in vivo), the “increase of AUC value” is listed as “about 3.3 -fold”. In series [1] (setting [4]), the AUC(0-t) at 8 h was found to be 197 ± 12.5 ng·h/mL, the Cmax worked out at 91.9 ± 0.4 ng/mL and the Tmax stood at 30 ± 15 min. Further, in series [1] (setting [5]), the AUC(0-t) at 8 h came to 59.8 ± 16.9 ng·h/mL, the Cmax was found to be 39 ± 16.6 ng/mL and the Tmax worked out at 45 ± 15 min.
`Br.Oc1ccc([C@@H]2CNC[C@H]2c2cccc(O)c2Cl)cc1O` (relative stereo) [compound (VIII), trans-3-(2-chloro-3-hydroxyphenyl)-4-(3,4-dihydroxyphenyl)pyrrolidine hydrobromide] gave a bioavailability in series [2] (dog, plasma, efficacious dose around 3 to 5 mg/kg) of 4 to 5%. Besides, in series [2] (0.3 to 30 mg/kg), the “gradient of regression line log(AUC) vs log(dose)” value stood at 1.218, the “increase of AUC value when the dose is increased 10-fold” value was 16.5 -fold and the “intercept of regression line log(AUC) vs log(dose)” value was 0.894. In addition, the clearance in series [3] (read-out: CLtotal) came to 78 mL/min/kg. Further, the C0 in series [3] (read-out: CP^0) was determined as 2290 ng/mL. Also, in series [3] (read-out: MRT (mean residence time in the plasma) (converted)), the MRT was 14.5 min. For the same compound, the Vd in series [3] (read-out: Vc) amounted to 0.44 L/kg. Also, in series [3] (phase a, read-out: t1/2a), the half-life worked out at 1.3 min. Moreover, the half-life in series [3] (phase b, read-out: t1/2b) stood at 8.11 min. The half-life in series [3] (phase c, read-out: t1/2c) is 26.9 min.
Consider `Br.Oc1ccc(C2CNCc3c2ccc(O)c3O)cc1O` (stereo not drawn) [compound (II), 7,8-dihydroxy-4-(3,4-dihydroxyphenyl)-1,2,3,4-tetrahydroisoquinoline hydrobromide], for which, in series [1] (3 mg/kg oral + ascorbic acid 15 mg/kg), the “Addition effect (AUC ratio)” value stood at 1.39. In series [1] (3 mg/kg oral, none (control)), the “Addition effect (AUC ratio)” value came to 1.00. In addition, in series [1] (setting [6]), the AUC(0-t) at 8 h was determined as 116.6 ± 0.1 ng·h/mL, the Cmax stood at 89.6 ± 11.8 ng/mL and the Tmax came out at 37.8 ± 7.8 min. Further, in series [1] (setting [7]), the AUC(0-t) at 8 h was 83.6 ± 4.7 ng·h/mL, the concentration peaked (Cmax) at 95.6 ± 42.2 ng/mL and the Tmax was 25.2 ± 5.4 min. Moreover, the “increase of AUC value” in series [1] (with ascorbic acid) is “about 1.4 -fold”.
